Experimental data: paper PMC7404261 (2020)

Legend:
[1] = tested on: ssDNA-G4-Fw (DNA, G4) CGGGAAAAGGCGCGCGGAAGGGGT; assay: ThT fluorescence titration; settings: Na+ (PBS), ThT 3 µM, ODN 0-6 µM, 491 nm, fitted to 1:1 model, unit not given
[2] = tested on: RNA-G4 (RNA, G4) GGGAAAAGGCGCGCGGAAGGGG; assay: ThT fluorescence titration; settings: Na+ (PBS), ThT 3 µM, ODN 0-6 µM, 491 nm, fitted to 1:1 model, unit not given

For `Cc1ccc2c(c1)sc(-c1ccc(N(C)C)cc1)[n+]2C`, the association constant [1] was 2.72 × 10^6 and the association constant [2] was 2.90 × 10^6.
